In data set [1] the target is voltage-gated potassium ion channel hERG (Homo sapiens (Human), UniProt Q12809).
Another data set can be described thus: in vivo. The note with it: male, SD, rat.
Another data set concerns NCI-H1417 cells. Put plainly: In vitro cell proliferation detection (CellTiter-Glo, 7 days). The class given is cell-based. To be noted: Homo sapiens, 168 h; NCI-H1417 cells, 7 days, CellTiter-Glo; read-out: NCI-H1417 proliferation inhibition IC50. Background: ATP-based viability assays read luminescence as a measure of living cells.
The conditions of data set [2]: rat, in vivo; for F: male, SD.
The target of another data set is LSD1 (Homo sapiens (Human), UniProt O60341). Put plainly: LSD1 enzyme activity detection (HTRF). The class given is biochemical. The note with it: HTRF, H3K4me1 substrate; read-out: Inhibition of enzymatic activity of LSD1 IC50.
The target of the next data set is CYP3A4 (Homo sapiens (Human), UniProt P08684). To be noted: microsomes.
A short description of another data set: in vitro. To be noted: human, Caco-2.

Chain of CYP3A4 (P08684 whole entry): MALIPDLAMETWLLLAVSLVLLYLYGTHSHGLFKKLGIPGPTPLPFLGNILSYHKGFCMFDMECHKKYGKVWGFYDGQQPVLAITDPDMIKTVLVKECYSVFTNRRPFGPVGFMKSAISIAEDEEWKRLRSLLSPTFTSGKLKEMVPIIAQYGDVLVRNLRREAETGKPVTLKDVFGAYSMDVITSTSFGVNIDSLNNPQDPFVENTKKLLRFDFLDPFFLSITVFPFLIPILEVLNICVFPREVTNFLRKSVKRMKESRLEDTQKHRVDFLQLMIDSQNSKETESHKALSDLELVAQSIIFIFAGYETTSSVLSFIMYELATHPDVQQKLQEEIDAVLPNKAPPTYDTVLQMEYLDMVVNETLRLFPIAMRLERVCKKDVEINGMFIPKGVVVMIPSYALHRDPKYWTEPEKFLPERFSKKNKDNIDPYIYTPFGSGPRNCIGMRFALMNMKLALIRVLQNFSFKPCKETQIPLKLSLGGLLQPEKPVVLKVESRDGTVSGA
Chain of voltage-gated potassium ion channel hERG (Q12809 whole entry): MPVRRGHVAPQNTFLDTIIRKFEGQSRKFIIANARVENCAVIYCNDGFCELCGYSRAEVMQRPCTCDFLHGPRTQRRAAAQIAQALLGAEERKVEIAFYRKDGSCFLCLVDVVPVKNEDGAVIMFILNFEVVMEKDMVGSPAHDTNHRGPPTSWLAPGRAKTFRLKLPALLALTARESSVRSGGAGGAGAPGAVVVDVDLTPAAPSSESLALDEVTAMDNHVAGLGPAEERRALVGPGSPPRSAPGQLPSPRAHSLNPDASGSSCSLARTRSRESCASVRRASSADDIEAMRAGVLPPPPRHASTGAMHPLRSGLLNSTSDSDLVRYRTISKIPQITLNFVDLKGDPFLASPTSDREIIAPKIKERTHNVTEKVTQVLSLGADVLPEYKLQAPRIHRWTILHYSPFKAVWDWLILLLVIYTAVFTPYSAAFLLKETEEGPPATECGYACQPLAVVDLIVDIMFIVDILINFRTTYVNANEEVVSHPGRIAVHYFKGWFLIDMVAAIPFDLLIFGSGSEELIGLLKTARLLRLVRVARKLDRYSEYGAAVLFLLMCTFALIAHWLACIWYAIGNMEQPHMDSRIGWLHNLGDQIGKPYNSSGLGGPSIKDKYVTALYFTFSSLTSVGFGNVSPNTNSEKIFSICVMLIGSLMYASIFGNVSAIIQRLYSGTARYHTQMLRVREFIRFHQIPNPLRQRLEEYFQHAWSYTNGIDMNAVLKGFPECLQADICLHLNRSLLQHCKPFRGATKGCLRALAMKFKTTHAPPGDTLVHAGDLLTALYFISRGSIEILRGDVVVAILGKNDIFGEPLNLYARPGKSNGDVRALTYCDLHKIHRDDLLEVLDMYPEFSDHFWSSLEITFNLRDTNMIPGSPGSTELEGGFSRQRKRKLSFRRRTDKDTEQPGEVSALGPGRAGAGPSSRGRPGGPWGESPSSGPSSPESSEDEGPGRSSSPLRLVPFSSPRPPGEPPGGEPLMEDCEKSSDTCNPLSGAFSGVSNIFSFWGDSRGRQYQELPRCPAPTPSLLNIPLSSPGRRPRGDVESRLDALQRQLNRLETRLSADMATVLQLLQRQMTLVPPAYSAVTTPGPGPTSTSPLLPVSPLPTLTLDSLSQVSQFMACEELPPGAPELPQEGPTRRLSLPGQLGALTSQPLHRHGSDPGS

In general, AUC(0-inf) refers to the area under the concentration-time curve extrapolated to infinity. Low readings indicate low exposure, high ones high exposure. As usually defined, the Cmax is the peak of the concentration-time curve. As a reminder, the Vd is the apparent volume that relates the amount in the body to the concentration in plasma or blood. A high value points to wide distribution into tissue. As usually defined, the half-life is the time in which the quantity being followed falls by half. A lower half-life goes with rapid decline. Compound `Cc1noc2cc(-c3c(-c4ccc(C#N)c(F)c4)nc(N4C5CCC4CC(N)C5)n4ccnc34)c(F)cc12` (centres unmarked) [Example 118, 4-(5-(3-amino-8-azabicyclo [3.2.1]octane-8-yl)-8-(5-fluoro-3-methylbenzo[d]isoxazol-6-yl)imidazolo[1,2 c]pyrimidin-7-yl)-2-fluorobenzonitrile] yielded an IC50 in data set [1] of 13.2 µM. Moreover, in the data set “in vivo”, the AUC(0-inf) came out at 192 ng·h/mL, the concentration peaked (Cmax) at 26.9 ng/mL, the Vd came to 20 L/kg and the half-life is 4.67 h. The IC50 in the data set with NCI-H1417 cells turned out to be 0.0006 µM. For the same compound, in data set [2], the F amounted to 12.1% and the Cl turned out to be 56.1. The IC50 on LSD1 came to 0.00027 ± 1e-05 µM. Further, the IC50 at CYP3A4 came out at 8.68 µM.

A word on the Papp A→B: it is the apparent permeability from the apical to the basolateral side of a cell layer. The low end stands for slow passage, the high end for fast passage. As a reminder, the Papp B→A is how fast a substance crosses the layer from the basolateral side. As usually defined, the efflux ratio is a quotient of directional permeabilities that is used to spot active efflux. The compound `COc1ccc(-c2c(-c3ccc(C#N)c(F)c3)nc(N3C4CCC3CC(N)C4)n3ccnc23)cc1F` (centres unmarked) [Example 120, 4-(5-(3-amino-8-azabicyclo[3.2.1]octane-8-yl)-8-(3-fluoro-4-methoxyphenyl)imidazolo[1,2-c]pyrimidin-7-yl)-2-fluorobenzonitrile] gave an IC50 in data set [1] of 7.83 µM. In the data set “in vivo”, this compound showed an AUC(0-inf) of 310 ng·h/mL, a Cmax of 34.7 ng/mL, a Vd of 14.5 L/kg and a half-life of 4.82 h. For the same compound, the IC50 with NCI-H1417 cells is 0.00208 µM. Moreover, in the data set “in vitro”, the Papp A→B at 120 min was determined as 2.88 ×10⁻⁶ cm/s, the Papp B→A at 120 min came out at 7.37 ×10⁻⁶ cm/s and the efflux ratio at 120 min worked out at 2.56. In data set [2], this compound showed an F of 14.4% and a Cl of 39.9. The IC50 at LSD1 is 0.00077 ± 0.00043 µM. This compound also had an IC50 against CYP3A4 of 8.93 µM.

Source of the values: patent US20240216357A1 (SICHUAN HUIYU PHARMACEUTICAL CO., LTD., priority 2021, published 2024).
